From patent publication US4971966A, “Substituted pyrido(2,3-B) (1,4) benzodiazepin-6-ones, and medicaments containing these compounds” (Karl Thomae GmbH, priority 1986, dated 1990)
Where two headings read alike, the source gives them in different places.

Legend:
[1] = biological target: T1, muscarinic receptors, lacrimal glands (Rattus norvegicus, UniProt P08483); experiment: Receptor binding assay in vivo, lacrimal gland; set-up: species or system female rats; conditions: iv, 0.5 h, read-out: ID50, lacrimal gland
T1 construct: the heart, the bronchi and the lacrimal glands were removed; from tissue; host or cells: rat lacrimal glands, labelled in vivo
Protocol: (§1) Female rats with a body weight of about 200 g were used for these experiments. Before the start of the experiment, the animals were anaesthetised with a dose of 1.25 g/kg urethane. The animals each received the specified dose of the test substance by i.v. injection. After 15 minutes had elapsed 113 ng/kg ^3 H-N-methylscopolamine (^3 H-NMS) were administered in the same way. After a further 15 minutes, the animals were sacrificed, and the heart, the bronchi and the lacrimal glands were removed. These organs were dissolved in Soluene R, and the radioactivity was determined. These measurements were assumed to be the total binding. […] ID50 values were determined for the individual organs from these experiments.

[2] = tested on: heart rate, conscious dog; experiment: Effect increasing the heart rate in the conscious dog (tachycardia); format: in vivo; conditions: for ED50: Canis lupus familiaris, dose for increase of 50 beats/min.
Protocol: The substances were either injected intravenously or administered orally, and the heart rate was measured using a tachygraph. After a control period, increasing doses of the compound were administered in order to increase the heart rate. In each case, the next dose was administered when the effect of the preceding dose was no longer evident. The dose of a substance which brought about an increase of 50 beats/min. (ED50) was determined graphically. Each substance was examined on 3 to 5 dogs.

M1 = biological target: T2, M1 (Rattus norvegicus, UniProt P08482); experiment: M1/M2 selectivity in the rat: M1-activity (increase in blood pressure caused by McN-A-343); format: in vivo, male THOM rats; conditions: iv, read-out: M1-activity (rat) ED50
T2 construct: from tissue; host or cells: living male THOM rat, sympathetic ganglia (site by own knowledge)
T2 sequence (P08482 1-460): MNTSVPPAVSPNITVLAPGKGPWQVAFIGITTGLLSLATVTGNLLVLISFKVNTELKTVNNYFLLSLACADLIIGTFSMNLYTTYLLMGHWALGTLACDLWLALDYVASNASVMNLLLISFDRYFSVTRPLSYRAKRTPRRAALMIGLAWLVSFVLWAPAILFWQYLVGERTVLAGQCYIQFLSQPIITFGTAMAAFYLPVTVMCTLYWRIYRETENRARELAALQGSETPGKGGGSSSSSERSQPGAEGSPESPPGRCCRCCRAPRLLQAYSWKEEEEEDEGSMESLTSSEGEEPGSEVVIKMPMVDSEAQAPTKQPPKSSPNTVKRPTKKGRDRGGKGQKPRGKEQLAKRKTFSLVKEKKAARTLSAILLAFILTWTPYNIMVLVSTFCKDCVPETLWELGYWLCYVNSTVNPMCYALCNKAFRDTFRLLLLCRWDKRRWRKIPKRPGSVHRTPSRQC
Protocol: The dose of the substances which reduced either the vagal bradycardia (M2) or the increase in blood pressure (M1) by 50% was determined graphically.

[3] = tested on: muscarinic receptors, bronchi; experiment: Receptor binding assay in vivo, bronchi; set-up: species or system female rats; conditions: i.v.; inhibition of 50% of specific 3H-NMS binding; 30 min
Protocol: as §1

[4] = biological target: T3, muscarinic receptors of the atrium (Cavia porcellus, UniProt H0VRN8); experiment: Dissociation constants in vitro on the spontaneously beating right atrium; set-up: species or system guinea pig; conditions: methacholine agonist, 30 min contact, Arunlakshana and Schild, read-out: Dissociation constant KB, heart
T3 construct: In the isolated, spontaneously beating right atrium, M reduced the heart rate; from tissue; host or cells: guinea pig isolated right atrium
T3 sequence (H0VRN8 1-466): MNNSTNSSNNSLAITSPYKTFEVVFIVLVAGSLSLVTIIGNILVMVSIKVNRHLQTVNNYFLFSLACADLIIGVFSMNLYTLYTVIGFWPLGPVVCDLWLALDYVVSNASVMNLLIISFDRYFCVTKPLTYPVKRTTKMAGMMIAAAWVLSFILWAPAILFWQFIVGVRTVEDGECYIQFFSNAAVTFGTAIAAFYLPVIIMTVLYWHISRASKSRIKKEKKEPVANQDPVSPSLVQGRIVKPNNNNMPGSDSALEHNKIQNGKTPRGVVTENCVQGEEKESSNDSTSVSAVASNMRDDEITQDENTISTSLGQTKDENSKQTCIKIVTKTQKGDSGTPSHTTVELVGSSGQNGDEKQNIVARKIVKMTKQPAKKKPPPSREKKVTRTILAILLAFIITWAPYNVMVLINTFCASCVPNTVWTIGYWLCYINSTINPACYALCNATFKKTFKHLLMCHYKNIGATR
Protocol: (§2) Dissociation constants (KB values) were determined "in vitro" on the ileum and spontaneously beating atrium of the guinea pig. The ileum was removed and incubated in Krebs-Henseleit solution in an organ bath. Contractions were induced by increasing concentrations of methacholine (M) in such a way that it was possible to construct complete concentration-effect curves. Then M was washed out, the substance to be investigated was added and left in contact for 30 minutes, and again a concentration-effect curve with M was constructed.
Dissociation constants for the muscarinic receptors of the atrium were obtained in the same way as described above. Comparison of the dissociation constants determined in the two tissues permitted cardioselective substances to be identified.

[5] = biological target: T4, muscarinic receptors, heart atrium (Rattus norvegicus, UniProt P10980); experiment: Receptor binding assay in vivo, heart atrium; set-up: species or system female rats; conditions: iv, 0.5 h, read-out: ID50, heart atrium
T4 construct: the heart, the bronchi and the lacrimal glands were removed; from tissue; host or cells: rat heart atrium, labelled in vivo
T4 sequence (P10980 1-466): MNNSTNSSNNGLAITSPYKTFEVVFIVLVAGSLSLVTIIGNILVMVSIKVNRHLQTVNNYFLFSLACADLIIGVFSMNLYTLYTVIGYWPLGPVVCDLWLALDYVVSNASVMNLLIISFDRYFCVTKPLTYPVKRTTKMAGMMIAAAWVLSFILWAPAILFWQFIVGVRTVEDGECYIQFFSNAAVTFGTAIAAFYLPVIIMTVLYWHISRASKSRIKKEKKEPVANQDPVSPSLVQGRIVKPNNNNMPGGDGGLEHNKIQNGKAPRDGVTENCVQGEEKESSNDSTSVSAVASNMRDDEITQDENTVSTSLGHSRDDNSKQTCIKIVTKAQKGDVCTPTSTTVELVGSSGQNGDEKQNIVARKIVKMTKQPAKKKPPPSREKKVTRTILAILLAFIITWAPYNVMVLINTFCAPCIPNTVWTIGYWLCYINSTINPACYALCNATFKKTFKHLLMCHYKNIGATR
Protocol: as §1

[6] = biological target: T5, muscarinic receptors, heart ventricle (Rattus norvegicus, UniProt P10980); experiment: Receptor binding assay in vivo, heart ventricle; set-up: species or system female rats; conditions: iv, 0.5 h, read-out: ID50, heart ventricle
T5 construct: the heart, the bronchi and the lacrimal glands were removed; from tissue; host or cells: rat heart ventricle, labelled in vivo
T5 sequence (P10980 1-466): T4 sequence (P10980 1-466)
Protocol: as §1

[7] = biological target: T6, muscarinic receptors, ileum (Cavia porcellus, UniProt H0W1Z3); experiment: Dissociation constants in vitro on the ileum; set-up: species or system guinea pig; conditions: ileum contractions; methacholine agonist; 30 min contact; Arunlakshana and Schild; read-out: Dissociation constant KB, ileum
T6 construct: The ileum was removed and incubated in Krebs-Henseleit solution in an organ bath; from tissue; host or cells: guinea pig isolated ileum
Protocol: as §2

[8] = biological target: T7, muscarinic receptors, complete heart (Rattus norvegicus, UniProt P10980); experiment: biochemical
T7 sequence (P10980 1-466): T4 sequence (P10980 1-466)

[9] = tested on: pilocarpine-induced secretion of saliva; experiment: Effect inhibiting secretion of saliva in the rat; format: in vivo, male THOM rats; conditions: iv, 2 mg/kg pilocarpine s.c., urethane anaesthesia, read-out: Inhibition of secretion of saliva (rat) ED50
Protocol: Secretion of saliva was induced by s.c. administration of 2 mg/kg pilocarpine. The saliva was absorbed using blotting paper, and the area covered by it was determined by planimetry every 5 minutes. The dose of the substance which reduced the volume of saliva by 50% was determined graphically.

[10] = biological target: T8, muscarinic receptors, submandibular gland (Rattus norvegicus, UniProt P08483); experiment: Receptor binding assay in vitro, submandibular gland (3H-NMS displacement); set-up: species or system male Sprague-Dawley rats; conditions: rat submandibular gland homogenate; 0.3 nmolar 3H-NMS, 30° C., 45 min, pH 7.4
T8 construct: After removal of the heart, submandibular gland and cerebral cortex; from tissue; host or cells: rat submandibular gland homogenate

M2 = biological target: T9, M2 (Rattus norvegicus, UniProt P10980); experiment: M1/M2 selectivity in the rat: M2-activity (vagal bradycardia); format: in vivo, male THOM rats; conditions: iv, read-out: M2-activity (rat) ED50
T9 construct: The bradycardia induced by stimulation of the vagus; from tissue; host or cells: living male THOM rat, heart
T9 sequence (P10980 1-466): T4 sequence (P10980 1-466)
Protocol: The method which was used has been described by Hammer and Giachetti (Life Sciences 31, 2991-2998 (1982)). Five minutes after intravenous injection of increasing doses of the substance, either the right vagus was electrically stimulated (frequency: 25 Hz; pulse width: 2ms; stimulus duration: 30s; number of volts: supramaximal) or 0.3 mg/kg McN-A-343 was injected intravenously into male THOM rats. The bradycardia induced by stimulation of the vagus, and the increase in blood pressure caused by McN-A-343, were determined. The dose of the substances which reduced either the vagal bradycardia (M2) or the increase in blood pressure (M1) by 50% was determined graphically.

[11] = biological target: muscarinic receptors, cerebral cortex; experiment: Receptor binding assay in vitro, cerebral cortex (3H-NMS displacement); set-up: species or system male Sprague-Dawley rats; conditions: rat cerebral cortex homogenate; 0.3 nmolar 3H-NMS, 30° C., 45 min, pH 7.4
Protocol: The organ donors were male Sprague-Dawley rats with a body weight of 180-220 g. […] Finally, all the organs were processed in a potter homogeniser. […] The organ homogenates were incubated at a defined concentration of the radio-ligand and a series of concentrations of the non-radioactive test substances in Eppendorf centrifuge tubes at 30° C. The incubation lasted 45 minutes. The radioligand used was 0.3 nmolar ^3 H-N-methylscopolamine (^3 H-NMS). The incubation was stopped by addition of ice-cold buffer, followed by a vacuum filtration. The filters were washed with cold buffer, and their radioactivity was determined. This represents the total of specific and non-specific binding of ^3 H-NMS. The contribution of the non-specific binding was defined as that radioactivity which was bound in the presence of 1 micromolar quinuclidinyl benzylate. Determinations were always carried out in quadruplicate. The IC50 values of the unlabelled test substances were determined graphically.

T1 sequence (P08483 whole entry): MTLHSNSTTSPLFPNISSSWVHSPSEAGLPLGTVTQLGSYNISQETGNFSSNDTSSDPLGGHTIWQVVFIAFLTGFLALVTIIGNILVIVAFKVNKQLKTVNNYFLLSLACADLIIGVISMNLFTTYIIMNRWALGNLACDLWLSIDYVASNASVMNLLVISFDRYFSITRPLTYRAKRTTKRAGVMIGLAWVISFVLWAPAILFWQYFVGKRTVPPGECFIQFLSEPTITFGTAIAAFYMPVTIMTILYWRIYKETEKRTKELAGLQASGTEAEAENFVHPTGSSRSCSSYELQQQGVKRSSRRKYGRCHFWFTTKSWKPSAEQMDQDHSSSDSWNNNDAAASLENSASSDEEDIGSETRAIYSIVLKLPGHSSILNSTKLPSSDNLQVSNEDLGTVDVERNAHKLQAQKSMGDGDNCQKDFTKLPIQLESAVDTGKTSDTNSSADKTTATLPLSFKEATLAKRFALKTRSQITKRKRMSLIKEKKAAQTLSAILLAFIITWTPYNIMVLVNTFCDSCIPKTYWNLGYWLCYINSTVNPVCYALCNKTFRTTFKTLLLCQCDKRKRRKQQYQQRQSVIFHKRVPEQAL
T6 sequence (H0W1Z3 1-590): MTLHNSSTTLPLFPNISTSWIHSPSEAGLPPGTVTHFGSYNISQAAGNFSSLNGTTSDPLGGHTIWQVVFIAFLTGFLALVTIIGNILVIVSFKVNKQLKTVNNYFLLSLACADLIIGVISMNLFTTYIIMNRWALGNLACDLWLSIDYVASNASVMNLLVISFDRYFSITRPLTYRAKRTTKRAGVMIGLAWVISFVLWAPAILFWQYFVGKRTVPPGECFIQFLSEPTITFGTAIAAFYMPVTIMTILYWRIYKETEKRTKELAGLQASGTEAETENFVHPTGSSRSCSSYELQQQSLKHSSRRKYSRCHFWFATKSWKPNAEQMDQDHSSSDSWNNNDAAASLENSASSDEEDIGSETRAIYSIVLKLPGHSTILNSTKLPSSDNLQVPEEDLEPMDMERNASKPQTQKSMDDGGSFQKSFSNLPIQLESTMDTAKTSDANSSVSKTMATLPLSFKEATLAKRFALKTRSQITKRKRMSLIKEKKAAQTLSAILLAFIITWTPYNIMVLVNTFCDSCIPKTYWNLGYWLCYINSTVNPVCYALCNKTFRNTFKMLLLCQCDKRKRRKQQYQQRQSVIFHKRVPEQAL
T8 sequence (P08483 whole entry): as the sequence (P08483 whole entry) above

Kb [7]	IC50 [8]	IC50 [10]	ED50 (M2; 50% reduction of vagal bradycardia)	IC50 [11]	Compound	ED50 [1]	ED50 ([2]; intravenous, read-out: Tachycardia (dog) ED50 intravenous)	ED50 ([2]; oral, read-out: Tachycardia (dog) ED50 oral)	Ratio ED50 p.o./ED50 i.v. ([2]; tachycardia, conscious dog)	ED50 (M1; 50% reduction of McN-A-343 (0.3 mg/kg i.v.) blood pressure increase)	ID50, bronchi [3]	Kb [4]	ED50 [5]	ED50 [6]	ED50 [9]	ED50 (M1)	ED50 (M2)
–	–	–	–	–	CCN(CC)CC1CCCCN1CC(=O)N1c2ccccc2C(=O)Nc2cccnc21 (stereo not drawn) [Substance B, 11-[[2-[(diethylamino)methyl]-1-piperidinyl]acetyl]-5,11-dihydro-6H-pyrido[2,3-b][1,4]benzodiazepin-6-one]	30 mg/kg	–	–	–	–	–	–	–	–	–	–	–
513 nM	50 nM	1500 nM	0.077 mg/kg	500 nM	CCN(CC)CC1CCCCN1CC(=O)N1c2cc(Cl)ccc2C(=O)Nc2cccnc21 (stereo not drawn) [Substance A, 9-chloro-11-[[2-[(diethylamino)methyl]-1-piperidinyl]-acetyl]-5,11-dihydro-6H-pyrido[2,3-b]-[1,4]benzodiazepin-6-one]	30 mg/kg	0.17 mg/kg	0.38 mg/kg	2	1.48 mg/kg	8.0 mg/kg	14.8 nM	0.6 mg/kg	0.3 mg/kg	7.57 mg/kg	–	–
–	–	–	–	–	CN1CCN(CC(=O)N2c3ccccc3C(=O)Nc3cccnc32)CC1 [Substance C, 5,11-dihydro-11-[(4-methyl-1-piperazinyl)acetyl]-6H-pyrido[2,3-b][1,4]benzodiazepin-6one]	–	–	–	–	–	–	–	–	–	0.084 mg/kg	–	–
–	–	–	–	–	CN1[C@@H]2CC[C@H]1CC(OC(=O)C(CO)c1ccccc1)C2 (stereo partly drawn) [Substance D, atropine, reference compound]	0.2 mg/kg	–	–	–	–	0.1 mg/kg	1.41 nM	0.08 mg/kg	0.03 mg/kg	–	0.016 mg/kg	0.004 mg/kg
